# From patent publication US9902725B2, “Heterocyclic derivatives as RORgamma modulators” (GENFIT, priority 2014, dated 2018)
# How the values were obtained:
# [1] = molecular target: T1, RORγt ligand-binding domain (RORγt-LBD) (Homo sapiens, UniProt P51449); assay: Time-resolved FRET (TR-FRET) RORγt coactivator assay; format: biochemical; settings: GST-RORγ-LBD, biotinylated RIP140 peptide, coactivator displacement
# T1 construct: 20 nM recombinantly expressed RORγ-LBD fused to GST
# T1 sequence (P51449 269-508 limits assumed): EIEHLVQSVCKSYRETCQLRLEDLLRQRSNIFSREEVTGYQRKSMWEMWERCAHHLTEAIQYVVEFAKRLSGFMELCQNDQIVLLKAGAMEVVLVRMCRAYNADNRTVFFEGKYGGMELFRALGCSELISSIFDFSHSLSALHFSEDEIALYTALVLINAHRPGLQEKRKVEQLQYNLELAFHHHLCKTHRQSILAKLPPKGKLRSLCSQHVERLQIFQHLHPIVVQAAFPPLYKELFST
# human RORγt = molecular target: T2, human RORγt (Homo sapiens, UniProt P51449); assay: IL-17 secretion from EL4 murine lymphoma overexpressing human RORγt; format: cell-based; design: expressed in transfected cells; host or cells: EL-4 murine lymphoma; settings: IL-17 secretion inhibition, PMA and ionomycin stimulation, 24 h
# T2 sequence (P51449 1-497 isoform P51449-2): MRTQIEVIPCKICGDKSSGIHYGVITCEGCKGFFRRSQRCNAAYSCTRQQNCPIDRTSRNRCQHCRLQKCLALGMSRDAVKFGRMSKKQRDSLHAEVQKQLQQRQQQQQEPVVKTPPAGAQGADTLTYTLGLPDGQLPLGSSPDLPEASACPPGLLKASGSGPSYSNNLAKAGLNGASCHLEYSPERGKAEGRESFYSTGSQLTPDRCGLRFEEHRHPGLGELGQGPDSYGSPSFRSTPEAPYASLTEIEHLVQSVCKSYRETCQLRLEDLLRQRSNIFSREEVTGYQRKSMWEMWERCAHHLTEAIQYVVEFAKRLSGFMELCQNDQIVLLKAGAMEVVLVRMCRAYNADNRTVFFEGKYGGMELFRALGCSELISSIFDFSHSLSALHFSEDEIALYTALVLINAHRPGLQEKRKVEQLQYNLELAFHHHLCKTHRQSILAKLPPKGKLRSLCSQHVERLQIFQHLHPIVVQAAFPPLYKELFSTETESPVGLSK
# Protocol: Murine EL-4 lymphoma cell line overexpressing human RORγt was used in this functional assay to assess compound ability to inhibit IL-17 cytokine secretion.
# EL-4 cells are maintained in a standard culture medium RPMI supplemented with 10% fetal calf serum, 1% sodium pyruvate, 1% essential amino acids and 1% antibiotics at 37° C. in a humidified atmosphere of 5% CO2 and 95% air. Culture medium was changed every 2 days. EL4 cells were transfected with a plasmid encoding hRORγt (sequence identical to published sequence NM 001001523). […] Briefly, 1 μg of DNA/1 million cells was served to transfect EL-4 cells. Cell/DNA suspension was transferred into certified cuvette and the electroporation of RORγt plasmid was carried out using appropriate Nucleofector® program.
# Cells were seeded in 96 well plates at a density of 150000 cells/well then treated with compounds of this invention at indicated concentrations and incubated for 24 hours at 37° C. in a humidified atmosphere of 5% CO2 and 95% air. EL-4 cells were pretreated with test compounds (RORγ modulators) and stimulated with PMA (10 ng/mL) and ionomycin (1 μM final concentration) in the presence of test compound concentrations for additional 24 h at 37° C. in a humidified atmosphere of 5% CO2 and 95% air. Subsequently, supernatants were collected (after centrifugation at 300 g for 10 minutes) to determine the concentrations of IL-17 by HTRF (CisBio, France) or ELISA (R&D Systems Europe) according to the manufacturer's protocols.
SMILES,IC50 [1] [µM],IC50 (human RORγt) [µM]
"CC(C)(C)OC(=O)CCc1c[nH]c2ccc(NC(=O)NC(c3ccccc3)c3ccccc3N3CCCCC3)cc12 (stereo not drawn) [compound 55, tert-butyl 3-{5-[({phenyl[2-(piperidin-1-yl)phenyl]methyl}carbamoyl)amino]-1H-indol-3-yl}propanoate]",10 to 30,1 to 10
"Cc1ccc(C(NC(=O)Cc2ccc3[nH]cc(CC(=O)O)c3c2)c2ccccc2)c(N2CCCC2)c1 (stereo not drawn) [compound 65, 2-{5-[({[4-methyl-2-(pyrrolidin-1-yl)phenyl](phenyl)methyl}carbamoyl)methyl]-1H-indol-3-yl}acetic acid]",< 1,1 to 10
"Cc1ccc(C(NC(=O)Cc2ccc3[nH]cc(CC(=O)O)c3c2)c2ccccc2)c(N2CCCCC2)c1 (stereo not drawn) [compound 87, 2-{5-[({[4-methyl-2-(piperidin-1-yl)phenyl](phenyl)methyl}carbamoyl)methyl]-1H-indol-3-yl}acetic acid]",< 1,1 to 10
"CC(C)CC(NC(=O)Cc1ccc2[nH]cc(CCC(=O)O)c2c1)c1cccc2ccccc12 (stereo not drawn) [compound 105, 3-[5-({[3-methyl-1-(naphthalen-1-yl)butyl]carbamoyl}methyl)-1H-indol-3-yl]propanoic acid]",< 1,1 to 10
"Cc1ccc(C(NC(=O)Cc2ccc3[nH]cc(CC(=O)N(C)C)c3c2)c2ccccc2)c(N2CCOCC2)c1 (stereo not drawn) [compound 112, N,N-dimethyl-2-{5-[({[4-methyl-2-(morpholin-4-yl)phenyl](phenyl)methyl}carbamoyl)methyl]-1H-indol-3-yl}acetamide]",< 1,1 to 10
"CCNc1cc(C)ccc1C(NC(=O)Cc1ccc2[nH]cc(CCC(=O)O)c2c1)c1ccccc1 (stereo not drawn) [compound 120, 3-{5-[({[2-(ethylamino)-4-methylphenyl](phenyl)methyl}carbamoyl)methyl]-1H-indol-3-yl}propanoic acid]",< 1,1 to 10
"Cc1ccc(C(NC(=O)Cc2ccc3[nH]cc(CCC(=O)O)c3c2)c2ccccc2)c(NC(C)C)c1 (stereo not drawn) [compound 126, 3-(5-{[({4-methyl-2-[(propan-2-yl)amino]phenyl}(phenyl)methyl)carbamoyl]methyl}-1H-indol-3-yl)propanoic acid]",< 1,1 to 10
"Cc1ccc(C(NC(=O)Cc2ccc3[nH]cc(CCC(=O)O)c3c2)c2nccs2)c(N2CCCCC2)c1 (stereo not drawn) [compound 140, 3-{5-[({[4-methyl-2-(piperidin-1-yl)phenyl](1,3-thiazol-2-yl)methyl}carbamoyl)methyl]-1H-indol-3-yl}propanoic acid]",< 1,1 to 10
"O=C(O)CCc1c[nH]c2ccc(CC(=O)NC3(c4ccccc4N4CCCCC4)CCCCC3)cc12 [compound 144, 3-{5-[({1-[2-(piperidin-1-yl)phenyl]cyclohexyl}carbamoyl)methyl]-1H-indol-3-yl}propanoic acid]",< 1,1 to 10
"Cc1ccc(C(NC(=O)Cc2ccc3[nH]cc(CCC(=O)O)c3c2)c2ccccc2)c(OC(C)C)c1 (stereo not drawn) [compound 146, 3-{5-[({[4-methyl-2-(propan-2-yloxy)phenyl](phenyl)methyl}carbamoyl)methyl]-1H-indol-3-yl}propanoic acid]",< 1,1 to 10
"Cc1ccc(C(NC(=O)Cc2ccc3[nH]nc(CCC(=O)O)c3c2)c2ccccc2)c(OC(C)C)c1 (stereo not drawn) [compound 160, 3-{5-[({[4-methyl-2-(propan-2-yloxy)phenyl](phenyl)methyl}carbamoyl)methyl]-1H-indazol-3-yl}propanoic acid]",< 1,10 to 30

# Second part, the compound after the results:
IC50 [1] [µM],IC50 (human RORγt) [µM],SMILES
< 1,1 to 10,"O=C(O)CCc1c[nH]c2ccc(CC(=O)NC(c3ccccc3)c3cc(Cl)ccc3N3CCCCC3)cc12 (stereo not drawn) [compound 62, 3-{5-[({[5-chloro-2-(piperidin-1-yl)phenyl](phenyl)methyl}carbamoyl)methyl]-1H-indol-3-yl}propanoic acid]"
< 1,1 to 10,"O=C(O)CCc1c[nH]c2ccc(CC(=O)NC(c3ccccc3)c3ccc(Cl)cc3N3CCCC3)cc12 (stereo not drawn) [compound 91, 3-{5-[({[4-chloro-2-(pyrrolidin-1-yl)phenyl](phenyl)methyl}carbamoyl)methyl]-1H-indol-3-yl}propanoic acid]"
< 1,1 to 10,"COc1ccc(C(NC(=O)Cc2ccc3[nH]cc(CCC(=O)O)c3c2)c2ccccc2)c(N2CCCC2)c1 (stereo not drawn) [compound 109, 3-{5-[({[4-methoxy-2-(pyrrolidin-1-yl)phenyl](phenyl)methyl}carbamoyl)methyl]-1H-indol-3-yl}propanoic acid]"
< 1,1 to 10,"Cc1ccc(N2CCCCC2)c(C(NC(=O)Cc2ccc3[nH]cc(CCC(=O)O)c3c2)c2ccccc2)c1 (stereo not drawn) [compound 114, 3-{5-[({[5-methyl-2-(piperidin-1-yl)phenyl](phenyl)methyl}carbamoyl)methyl]-1H-indol-3-yl}propanoic acid]"
< 1,1 to 10,"CNC(=O)CCc1c[nH]c2ccc(CC(=O)NC(c3ccccc3)c3ccccc3N3CCCCC3)cc12 (stereo not drawn) [compound 115, N-methyl-3-{5-[({phenyl[2-(piperidin-1-yl)phenyl]methyl}carbamoyl)methyl]-1H-indol-3-yl}propanamide]"
< 1,10 to 30,"O=C(O)CCc1c[nH]c2ccc(CC(=O)NC(c3ccccc3)c3cc(Br)ccc3N3CCCC3)cc12 (stereo not drawn) [compound 117, 3-{5-[({[5-bromo-2-(pyrrolidin-1-yl)phenyl](phenyl)methyl}carbamoyl)methyl]-1H-indol-3-yl}propanoic acid]"
< 1,1 to 10,"COc1ccc(N2CCCCC2)c(C(NC(=O)Cc2ccc3[nH]cc(CCC(=O)O)c3c2)c2ccccc2)c1 (stereo not drawn) [compound 136, 3-{5-[({[5-methoxy-2-(piperidin-1-yl)phenyl](phenyl)methyl}carbamoyl)methyl]-1H-indol-3-yl}propanoic acid]"
< 1,1 to 10,"Cc1ccc(C(NC(=O)Cc2ccc3[nH]cc(CCC(=O)O)c3c2)c2ccc(C)s2)c(N2CCCCC2)c1 (stereo not drawn) [compound 138, 3-{5-[({[4-methyl-2-(piperidin-1-yl)phenyl](5-methylthiophen-2-yl)methyl}carbamoyl)methyl]-1H-indol-3-yl}propanoic acid]"
< 1,1 to 10,"COc1ccc(C(NC(=O)Cc2ccc3[nH]cc(CCC(=O)O)c3c2)c2ccccc2)c(N2CCCCCC2)c1 (stereo not drawn) [compound 142, 3-{5-[({[2-(azepan-1-yl)-4-methoxyphenyl](phenyl)methyl}carbamoyl)methyl]-1H-indol-3-yl}propanoic acid]"
< 1,1 to 10,"Cc1ccc(C(NC(=O)Cc2ccc3[nH]cc(CCC(=O)O)c3c2)c2ccccc2N2CCCCC2)o1 (stereo not drawn) [compound 148, 3-[5-({[(5-methylfuran-2-yl)[2-(piperidin-1-yl)phenyl]methyl]carbamoyl}methyl)-1H-indol-3-yl]propanoic acid]"
< 1,1 to 10,"CCOc1ccc(C(NC(=O)Cc2ccc3[nH]cc(CCC(=O)O)c3c2)c2ccccc2)c(N2CCCCC2)c1 (stereo not drawn) [compound 150, 3-{5-[({[4-ethoxy-2-(piperidin-1-yl)phenyl](phenyl)methyl}carbamoyl)methyl]-1H-indol-3-yl}propanoic acid]"
< 1,10 to 30,"CC(C)Oc1ccc(C(NC(=O)Cc2ccc3[nH]cc(CCC(=O)O)c3c2)c2ccccc2)c(N2CCCCC2)c1 (stereo not drawn) [compound 152, 3-{5-[({phenyl[2-(piperidin-1-yl)-4-(propan-2-yloxy)phenyl]methyl}carbamoyl)methyl]-1H-indol-3-yl}propanoic acid]"
< 1,1 to 10,"Cc1cccc(C(NC(=O)Cc2ccc3[nH]cc(CCC(=O)O)c3c2)c2ccccc2N2CCCCC2)c1 (stereo not drawn) [compound 158, 3-[5-({[(3-methylphenyl)[2-(piperidin-1-yl)phenyl]methyl]carbamoyl}methyl)-1H-indol-3-yl]propanoic acid]"
